# Read-outs that look alike come from different tables or passages of the source.
# Test system: Mycosphaerella graminicola; Anamorph: Septoria tritici; Bayer Code SEPTTR
# Experiment: Leaf blotch of wheat, foliar fungicide treatment, one day protectant (1DP) or three day curative (3DC)
# Type: in vivo, Septoria tritici on wheat plants (variety Yuma)
# Settings: Zymoseptoria tritici; for pest or weed control at 50 ppm / pest or weed control at 200 ppm: % disease control rating
# [1] = 24 h, one day protectant (1DP), 25 ppm, rating of percent disease control, read-out: SETTTR 1DP 25 ppm
# [2] = 24 h, one day protectant (1DP), rating of percent disease control, read-out: SEPTTR 1DP 100 ppm
# [3] = 72 h, three day curative (3DC), 25 ppm, rating of percent disease control, read-out: SEPTTR 3DC 25 ppm
# [4] = 72 h, three day curative (3DC), rating of percent disease control, read-out: SEPTTR 3DC 100 ppm
# [5] = 24 h, one day protectant (1DP), 25 ppm (first 1DP column), percent control rating, read-out: SETTTR 1DP 25 ppm
# [6] = 24 h, one day protectant (1DP), 25 ppm as printed (second 1DP column), percent control rating, read-out: SETTTR 1DP 25 ppm
# [7] = 72 h, three day curative (3DC), 25 ppm, percent control rating, read-out: SEPTTR 3DC 25 ppm
# [8] = 72 h, three day curative (3DC), percent control rating, read-out: SEPTTR 3DC 100 ppm
# [9] = 24 h, one day protectant (1DP), 25 ppm, percent disease control rating, read-out: SETTTR 1DP 25 ppm
# [10] = 24 h, one day protectant (1DP), percent disease control rating, read-out: SEPTTR 1DP 100 ppm
# [11] = 72 h, three day curative (3DC), 25 ppm, percent disease control rating, read-out: SEPTTR 3DC 25 ppm
# [12] = 72 h, three day curative (3DC), percent disease control rating, read-out: SEPTTR 3DC 100 ppm
compound,measurement,setting,value
Nc1nc(OCc2cc(Cl)cc(C(F)(F)F)c2)ncc1F [Compound 743],pest or weed control at 25 ppm,[1],76 to 100%
same,pest or weed control at 100 ppm,[2],76 to 100%
same,pest or weed control at 25 ppm,[3],76 to 100%
same,pest or weed control at 100 ppm,[4],76 to 100%
CC(C)(C)NC(=O)Nc1nc(O)ncc1F [Compound 975],pest or weed control at 25 ppm,[5],0 to 25%
same,pest or weed control at 25 ppm,[6],0 to 25%
same,pest or weed control at 25 ppm,[7],0 to 25%
same,pest or weed control at 100 ppm,[8],0 to 25%
Nc1nc(OCc2cccc3ccsc23)ncc1F [Compound 381],pest or weed control at 25 ppm,[1],76 to 100%
same,pest or weed control at 100 ppm,[2],76 to 100%
same,pest or weed control at 25 ppm,[3],76 to 100%
same,pest or weed control at 100 ppm,[4],76 to 100%
Cc1cnc(CNc2nc(OCc3ccc(F)cc3)ncc2F)cn1 [Compound 900],pest or weed control at 50 ppm,"24 h, one day protectant",51 to 75%
same,pest or weed control at 200 ppm,"24 h, one day protectant",76 to 100%
COc1ncc(F)c(N)n1 [Compound 850],pest or weed control at 50 ppm,"24 h, one day protectant",0 to 25%
same,pest or weed control at 200 ppm,"24 h, one day protectant",51 to 75%
O=S(=O)(Nc1nc(OCc2cccs2)ncc1F)c1ccccc1 [Compound 1107],pest or weed control at 25 ppm,[5],0 to 25%
same,pest or weed control at 25 ppm,[6],0 to 25%
same,pest or weed control at 25 ppm,[7],0 to 25%
same,pest or weed control at 100 ppm,[8],0 to 25%
Nc1nc(OS(=O)(=O)c2cccs2)ncc1F [Compound 348],pest or weed control at 25 ppm,[1],76 to 100%
same,pest or weed control at 100 ppm,[2],76 to 100%
same,pest or weed control at 25 ppm,[3],76 to 100%
same,pest or weed control at 100 ppm,[4],76 to 100%
CC(C)(C)Oc1ccc(COc2ncc(F)c(N)n2)cc1 [Compound 95],pest or weed control at 25 ppm,[9],76 to 100%
same,pest or weed control at 100 ppm,[10],76 to 100%
same,pest or weed control at 25 ppm,[11],76 to 100%
same,pest or weed control at 100 ppm,[12],76 to 100%
CC(Oc1ncc(F)c(N)n1)c1c(F)c(F)c(F)c(F)c1F (centres unmarked) [Compound 544],pest or weed control at 25 ppm,[1],0 to 25%
same,pest or weed control at 100 ppm,[2],26 to 50%
same,pest or weed control at 25 ppm,[3],0 to 25%
same,pest or weed control at 100 ppm,[4],0 to 25%
CCCNC(=O)Nc1nc(OCc2ccn(C)n2)ncc1F [Compound 114],pest or weed control at 25 ppm,[9],0 to 25%
same,pest or weed control at 100 ppm,[10],0 to 25%
same,pest or weed control at 25 ppm,[11],0 to 25%
same,pest or weed control at 100 ppm,[12],0 to 25%
Cc1ccc(CNc2nc(OCc3ccc(C)cc3)ncc2F)cc1 [Compound 717],pest or weed control at 25 ppm,"24 h, one day protectant, 25 ppm, rating of percent disease control, read-out: SETTTR 1DP 25 ppm",51 to 75%
same,pest or weed control at 100 ppm,"24 h, one day protectant, rating of percent disease control, read-out: SEPTTR 1DP 100 ppm",76 to 100%
same,pest or weed control at 25 ppm,"72 h, three day curative, 25 ppm, rating of percent disease control, read-out: SEPTTR 3DC 25 ppm",76 to 100%
same,pest or weed control at 100 ppm,"72 h, three day curative, rating of percent disease control, read-out: SEPTTR 3DC 100 ppm",76 to 100%
Fc1cnc(OCc2ccc(Cl)cc2Cl)nc1NCc1ccc(Cl)cc1 [Compound 942],pest or weed control at 50 ppm,"24 h, one day protectant",76 to 100%
same,pest or weed control at 200 ppm,"24 h, one day protectant",76 to 100%
Fc1cnc(OCc2ccc(Cl)cc2)nc1NCc1ccc2c(c1)OCO2 [Compound 842],pest or weed control at 50 ppm,"24 h, one day protectant",76 to 100%
same,pest or weed control at 200 ppm,"24 h, one day protectant",76 to 100%
COc1cccc(COc2ncc(F)c(NS(=O)(=O)C(C)C)n2)c1 [Compound 1012],pest or weed control at 25 ppm,[5],0 to 25%
same,pest or weed control at 25 ppm,[6],0 to 25%
same,pest or weed control at 25 ppm,[7],0 to 25%
same,pest or weed control at 100 ppm,[8],0 to 25%
Fc1cnc(OCCc2ccccc2)nc1NCCc1ccccc1 [Compound 862],pest or weed control at 50 ppm,"24 h, one day protectant",51 to 75%
same,pest or weed control at 200 ppm,"24 h, one day protectant",76 to 100%
CC(C)N(O)c1nc(OCc2ccc(F)cc2)ncc1F [Compound 147],pest or weed control at 25 ppm,[9],0 to 25%
same,pest or weed control at 100 ppm,[10],51 to 75%
same,pest or weed control at 25 ppm,[11],26 to 50%
same,pest or weed control at 100 ppm,[12],26 to 50%
COc1cccc(COc2ncc(F)c(NO)n2)c1 [Compound 161],pest or weed control at 25 ppm,[9],76 to 100%
same,pest or weed control at 100 ppm,[10],76 to 100%
same,pest or weed control at 25 ppm,[11],26 to 50%
same,pest or weed control at 100 ppm,[12],76 to 100%
C[C@H](Oc1ncc(F)c(N)n1)c1ccc(Br)cc1 [Compound 103],pest or weed control at 25 ppm,[9],76 to 100%
same,pest or weed control at 100 ppm,[10],76 to 100%
same,pest or weed control at 25 ppm,[11],51 to 75%
same,pest or weed control at 100 ppm,[12],76 to 100%
Cc1ccc(CNc2nc(OCCc3ccccc3)ncc2F)cc1 [Compound 871],pest or weed control at 50 ppm,"24 h, one day protectant",0 to 25%
same,pest or weed control at 200 ppm,"24 h, one day protectant",26 to 50%
CN(C)/C=N/c1nc(OC(=O)c2cccc(Cl)c2)ncc1F [Compound 484],pest or weed control at 25 ppm,[1],76 to 100%
same,pest or weed control at 100 ppm,[2],76 to 100%
same,pest or weed control at 25 ppm,[3],76 to 100%
same,pest or weed control at 100 ppm,[4],76 to 100%
